We go through 11 compounds from US10100008B2, “Immunostimulating agent” (AJINOMOTO CO., INC., priority 2014, dated 2018).

In series [1] the test system is anti OVA-specific IgG1 subclass antibody. The series can be described thus: Adjuvant activity test: anti OVA-specific IgG1 subclass antibody in serum after subcutaneous immunization with OVA. Format: in vivo, BALB/c mice. Particulars: dorsal-subcutaneous. How it is done: One week later, the secondary immunization was carried out by dorsal-subcutaneous administration of solutions similar to those of the above-mentioned (1) to (5) again. Two weeks from the secondary immunization, the whole blood and spleen were extracted under anesthesia, and the obtained serum sample was measured for anti OVA-specific IgG1 subclass antibody. A method for measurement of the anti OVA-specific IgG1 subclass antibody in Example 1, and the following Examples 2, 4, 7 to 10 and 13 to 16 is as follows.
To a 96 well plate was added 5 μg/ml OVA at 100 μl/well, and the mixture was incubated at 4° C. overnight. After incubation, the mixture was washed three times with 200 μl of PBS-T (PBS (phosphate buffered saline)+0.05% (v/v) Tween 20) per well, and blocked with 100 μl of 5% FCS (fatal calf serum)/PBS solution per well at room temperature for 1 to 2 hr. Thereafter, the mixture was washed three times with PBS-T (200 μl/well), a diluted serum sample (100 μl/well) or the same amount of 5% FCS/PBS solution as a control was added, and the mixture was incubated at 37° C. for 1 hr. Thereafter, the mixture was washed five times with PBS-T (200 μl/well), a diluted biotinylated anti-mouse IgG1 antibody (100 μl/well) was added, and the mixture was incubated at 37° C. for 45 min. Thereafter, the mixture was washed five times with PBS-T (200 μl/well), a diluted anti-biotin-HRP antibody was added (100 μl/well), and the mixture was incubated at 37° C. for another 30 min. Thereafter, the mixture was washed five times with PBS-T (200 μl/well), TMB substrate solution was added (100 μl/well), and the mixture was incubated at room temperature for 10 to 15 min. Thereafter, a reaction quenching liquid (2N sulfuric acid solution) was added (50 μl/well) to discontinue a color developing reaction, and the absorbance (OD Value=450 nm) was measured by a microplate reader.
One week later, the secondary immunization was carried out by dorsal-subcutaneous administration of solutions similar to those of the above-mentioned (1) to (6) again. Two weeks from the secondary immunization, the whole blood and spleen were extracted under anesthesia, and the obtained serum sample was measured for anti OVA-specific IgG1 subclass antibody.
8-Week-old female BALB/c mice were divided into groups (N=6), and each group was primarily immunized by dorsal-subcutaneous administration of (1) ovalbumin (OVA) ([…] administration group), (2) OVA (10 μg) and, as an adjuvant, N,N′-bis(2-heptylundecanoyl)-L-cystine dimethyl ester (SZ23) ([…]), (3) OVA (10 μg) and N,N′-bis(dodecanoyl)-L-cystine dimethyl ester (SZ24) ([…]), and (4) saline (saline single administration group), each per mouse. One week later, the secondary immunization was carried out by dorsal-subcutaneous administration of solutions similar to those of the above-mentioned (1) to (4) again. Two weeks from the secondary immunization, the whole blood was extracted under anesthesia, and the obtained serum sample was measured for anti OVA-specific IgG1 subclass antibody. SZ24 is disclosed in JP-A-4-230359, which is incorporated herein by reference in its entirety.
8-Week-old female BALB/c mice were divided into groups (N=6), and each group was primarily immunized by dorsal-subcutaneous administration of (1) ovalbumin (OVA) ([…] administration group), (2) OVA (10 μg) and, as an adjuvant, N,N′-bis(2-tetradecylhexadecanoyl)-L-cystine dimethyl ester (SZ37) (0.256 μmol) added to saline, (3) OVA (10 μg) and N,N′-bis(2-octadecyleicosanoyl)-L-cystine dimethyl ester (SZ38) (0.256 μmol) added to saline, (4) OVA (10 μg) and SZ37 (0.256 μmol) dissolved or dispersed in 5% αCD-added saline, and (5) OVA (10 μg) and SZ38 (0.256 μmol) dissolved or dispersed in 5% αCD-added saline, each per mouse. One week later, the secondary immunization was carried out by dorsal-subcutaneous administration of solutions or dispersions similar to those of the above-mentioned (1) to (5) again. […]

The nature of series [2]: Dispersibility investigation test (turbidity, OD 650 nm; photograph). Format: physicochemical. The following applies: for dispersion in 5% αCD-added saline (photograph) / dispersion in saline (photograph): after stirring; for dispersion in saline (photograph): 0.256 μmol in 1 mL saline. As for the experimental part: N,N′-bis(2-tetradecylhexadecanoyl)-L-cystine dimethyl ester (SZ37) and N,N′-bis(2-octadecyleicosanoyl)-L-cystine dimethyl ester (SZ38) (0.256 μmol) were each dispensed to a 2 mL tube containing zirconia beads, saline or 5% α-cyclodextrin (hereinafter to be also simply referred to as αCD)-added saline (1 mL) was added, and the mixture was stirred. The absorbance (OD Value=650 nm) was measured by a microplate reader, and the turbidity was calculated as an index of dispersibility. The measurement method of the turbidity is as follows.
SZ37 and SZ38 (0.256 μmol) were each dispensed to a 2 mL tube containing zirconia beads, saline or 5% αCD-added saline (1 mL) was added, and the mixture was vigorously stirred three times under conditions of 3.15 seconds one time at 6000 rpm. The mixture was dispensed by 200 μL to a 96 well plate, and the absorbance (OD Value=650 nm) was measured by a microplate reader. As a control, kaolinite (1 mg) was dissolved in distilled water (1 L), and the absorbance (OD Value=650 nm) was measured by a microplate reader. The absorbance thereof (OD Value=650 nm) was defined to be turbidity: 1, and the turbidity of each sample was calculated from the ratio with the measured value of kaolinite.
Whether the dispersion state varies depending on the dispersion solvent when SZ37 and SZ38 are dispersed was studied. In the same manner as in Example 10, SZ37 and SZ38 were added 1% β-cyclodextrin (hereinafter to be also referred to simply as βCD)-added saline or 5% αCD-added saline, and the mixture was stirred. The absorbance (OD Value=650 nm) was measured by a microplate reader, and the turbidity was calculated as an index of dispersibility. The measurement method of turbidity as in Example 11.

Setting [3] is: 2.56 μmol in saline with OVA 10 μg, primary + secondary immunization, serum two weeks after, compared to OVA single administration group.
The mark [4] stands for this setting: 0.256 μmol dispersed in 5% αCD-added saline with OVA 10 μg, compared to control (OVA in 5% αCD-added saline).
The mark [5] stands for this setting: 0.256 μmol dispersed in 5% αCD-added saline with OVA 10 μg, compared to OVA single administration group (OVA in saline).
Setting [6] is: 0.256 μmol in saline with OVA 10 μg, compared to OVA single administration group.
Setting [7] is: 0.256 μmol in 1 mL 5% αCD-added saline.
Where [8] appears, read: 0.256 μmol in 1 mL 5% αCD-added saline, compared to dispersion in saline.
[9] abbreviates: 5% αCD-added saline, compared to dispersion in 1% βCD-added saline.

In the case of `COC(=O)[C@@H](N)CSSC[C@H](N)C(=O)OC` [(CyssOMe)2, cystine dimethyl ester, reference compound], the “production of anti OVA-specific IgG1 subclass antibody” value (“production” below) in series [1] (setting [3]) is listed as “did not show a significant difference”.

As to `CC(C)CCCCCCCCCCCCCCC(=O)O` [ISA, isostearic acid, reference compound], the “production” value in series [1] (5.12 μmol in saline with OVA 10 μg, compared to OVA single administration group) is recorded as “did not show a significant difference”.

Regarding `CCCCCCCCCCCCCCCC(=O)N[C@@H](CSSC[C@H](NC(=O)CCCCCCCCCCCCCCC)C(=O)OC)C(=O)OC` [SZ22, N,N′-bis(hexadecanoyl)-L-cystine dimethyl ester], the “production” value in series [1] (setting [4]) and in series [1] (setting [3]) was “significantly increased” throughout.

Take `COC(=O)[C@H](CSSC[C@H](NC(=O)C(CCC(C)CC(C)(C)C)C(C)CC(C)(C)C)C(=O)OC)NC(=O)C(CCC(C)CC(C)(C)C)C(C)CC(C)(C)C` (stereo partly drawn) [SZ23′, N,N′-bis[5,7,7-trimethyl-2-(1,3,3-trimethylbutyl)octanoyl]-L-cystine dimethyl ester]: in series [1] (setting [3]), the “production” value is listed as “significantly increased”.

Turning to `CCCCCCCCCCCC(=O)N[C@@H](CSSC[C@H](NC(=O)CCCCCCCCCCC)C(=O)OC)C(=O)OC` [SZ24, N,N′-bis(dodecanoyl)-L-cystine dimethyl ester, reference compound], the “production” value in series [1] (setting [3]) is given as “did not show a significant difference”.

In the case of `CCCCC/C=C\C/C=C\CCCCCCCC(=O)N[C@@H](CSSC[C@H](NC(=O)CCCCCCC/C=C\C/C=C\CCCCC)C(=O)OC)C(=O)OC` [SZ28, N,N′-bis(linoleoyl)-L-cystine dimethyl ester, reference compound], the “production” value in series [1] (setting [3]) is on record as “did not increase significantly”.

Regarding `CCCCCCCCCCCCC(=O)N[C@@H](CSSC[C@H](NC(=O)CCCCCCCCCCCC)C(=O)OC)C(=O)OC` [SZ34, N,N′-bis(tridecanoyl)-L-cystine dimethyl ester], the “production” value in series [1] (setting [4]) and in series [1] (setting [3]) was “significantly increased” each time.

On to `CCCCCCCCCCCCCCCCCCCCCCCCCCCCCC(=O)N[C@@H](CSSC[C@H](NC(=O)CCCCCCCCCCCCCCCCCCCCCCCCCCCCC)C(=O)OC)C(=O)OC` [SZ36, N,N′-bis(triacontanoyl)-L-cystine dimethyl ester], for which the “production” value in series [1] (setting [4]) and in series [1] (setting [3]) was “significantly increased” in each case.

For `CCCCCCCCCCCCCCC(CCCCCCCCCCCCCC)C(=O)N[C@@H](CSSC[C@H](NC(=O)C(CCCCCCCCCCCCCC)CCCCCCCCCCCCCC)C(=O)OC)C(=O)OC` [SZ37, N,N′-bis(2-tetradecylhexadecanoyl)-L-cystine dimethyl ester], the results for the “production” value in series [1] (setting [5]) and in series [1] (setting [6]) were “significantly increased” and “did not increase significantly”, respectively. Moreover, the “dispersion in 5% αCD-added saline (photograph)” value in series [2] (setting [7]) is reported as “could be uniformly dispersed”. For the same compound, the “turbidity (index of dispersibility)” value in series [2] (setting [8]) and in series [2] (setting [9]) was “significantly higher” each time. In series [2], the “dispersion in saline (photograph)” value is “could not be dispersed”.

As for `CCCCCCCCCCCCCCCCCCC(CCCCCCCCCCCCCCCCCC)C(=O)N[C@@H](CSSC[C@H](NC(=O)C(CCCCCCCCCCCCCCCCCC)CCCCCCCCCCCCCCCCCC)C(=O)OC)C(=O)OC` [SZ38, N,N′-bis(2-octadecyleicosanoyl)-L-cystine dimethyl ester], the results for the “production” value in series [1] (setting [5]) and in series [1] (setting [6]) were “significantly increased” and “did not increase significantly”, respectively. For the same compound, in series [2] (setting [7]), the “dispersion in 5% αCD-added saline (photograph)” value is “could be uniformly dispersed”. Besides, the “turbidity (index of dispersibility)” value in series [2] (setting [8]) and in series [2] (setting [9]) was “significantly higher” in each case. Also, the “dispersion in saline (photograph)” value in series [2] was “could not be dispersed”.

For `CCCCCCCCCCCCCCCCCCCCCC(=O)N[C@@H](CSSC[C@H](NC(=O)CCCCCCCCCCCCCCCCCCCCC)C(=O)OC)C(=O)OC` [SZ66, N,N′-bis(docosanoyl)-L-cystine dimethyl ester], in series [1] (setting [4]), the “production” value is listed as “significantly increased”.
